The source of these data is patent publication US9006455B2 (Bristol-Myers Squibb Company, priority 2009, dated 2015).

The structures appear in SMILES notation.

The first assay deals with HCV 1b genotype. Briefly: HCV Replicon assay (HCV 1b genotype). Format: cell-based. The conditions noted are these: Hepatitis C virus; HCV 1b genotype replicon; read-out: EC50. How it is done:
An HCV Replicon assay was utilized in the present disclosure, and was prepared, conducted and validated as described in commonly owned PCT/US2006/022197 and in O'Boyle et al., Antimicrob. Agents Chemother., 49(4):1346-1353 (April 2005). Assay methods incorporating luciferase reporters have also been used as described (Apath.com).
HCV-neo replicon cells and replicon cells containing resistance substitutions in the NS5A region were used to test the currently described family of compounds. The compounds were determined to have differing degrees of reduced inhibitory activity on cells containing mutations vs. the corresponding inhibitory potency against wild-type cells. Thus, the compounds of the present disclosure can be effective in inhibiting the function of the HCV NS5A protein and are understood to be as effective in combinations as previously described in application PCT/US2006/022197 and commonly owned WO 04/014852. It should be understood that the compounds of the present disclosure can inhibit multiple genotypes of HCV. […] In one embodiment, compounds of the present disclosure are inhibitory versus 1a, 1b, 2a, 2b, 3a, 4a, and 5a genotypes.
In general terms: In antiviral work, replicon cells carry a viral genome segment that copies itself.
On to `COC(=O)N[C@H](C(=O)N1CCC[C@H]1c1nc2ccc(-c3ccc4cc(-c5ccc6nc([C@@H]7CCCN7C(=O)[C@@H](NC(=O)OC)C(C)C)[nH]c6c5)ccc4c3)cc2[nH]1)C(C)C` [Example 2, Methyl((1S)-1-(((2S)-2-(5-(6-(2-((2S)-1-((2S)-2-((methoxycarbonyl)amino)-3-methylbutanoyl)-2-pyrrolidinyl)-1H-benzimidazol-5-yl)-2-naphthyl)-1H-benzimidazol-2-yl)-1-pyrrolidinyl)carbonyl)-2-methylpropyl)carbamate], for which the EC50 (commonly the concentration that produces a half-maximal response) stood at 0.00218 nM.

Turning to `COC(=O)N[C@H](C(=O)N1CCC[C@H]1c1nc2ccc(-c3ccc4cc(-c5ccc6nc([C@@H]7CCCN7C(=O)[C@@H](NC(=O)OC)C7CC7)[nH]c6c5)ccc4c3)cc2[nH]1)C1CC1` [Example 11, Dimethyl(2,6-naphthalenediylbis(1H-benzimidazole-5,2-diyl(2S)-2,1-pyrrolidinediyl((1S)-1-cyclopropyl-2-oxo-2,1-ethanediyl)))biscarbamate], the EC50 turned out to be 0.0182 nM.

`COC(=O)N[C@H](C(=O)N1CCC[C@@H]1c1nc2ncc(-c3ccc4cc(-c5cnc6nc([C@@H]7CCCN7C(=O)[C@@H](NC(=O)OC)C(C)C)[nH]c6c5)ccc4c3)cc2[nH]1)C(C)C` [Example 23, Methyl((1S)-1-(((2R)-2-(6-(6-(2-((2S)-1-((2S)-2-((methoxycarbonyl)amino)-3-methylbutanoyl)-2-pyrrolidinyl)-1H-imidazo[4,5-b]pyridin-6-yl)-2-naphthyl)-1H-imidazo[4,5-b]pyridin-2-yl)-1-pyrrolidinyl)carbonyl)-2-methylpropyl)carbamate]: the concentration for a half-maximal effect (EC50) turned out to be 0.888 nM.

The assay is the same for the next values; noted with them: Hepatitis C virus; HCV 1b genotype replicon; read-out: Range (EC50 values against HCV 1b).
For the compound `COC(=O)N[C@H](C(=O)N1C(c2ncc(-c3ccc4cc(-c5cccc(-c6c[nH]c([C@@H]7C[C@H]8C[C@H]8N7C(=O)[C@@H](NC(=O)OC)C(C)C)n6)c5)ccc4c3)[nH]2)CC2CC21)C(C)C` (stereo in doubt) [Example 51, Methyl((1S)-1-(((1S,3R,5S)-3-(4-(6-(3-(2-((1R,3S,5R)-2-((2S)-2-((methoxycarbonyl)amino)-3-methylbutanoyl)-2-azabicyclo[3.1.0]hex-3-yl)-1H-imidazol-4-yl)phenyl)-2-naphthyl)-1H-imidazol-2-yl)-2-azabicyclo[3.1.0]hex-2-yl)carbonyl)-2-methylpropyl)carbamate], the EC50 fell in the range of 0.0101 to 1 nM.

As for `COC(=O)N[C@H](C(=O)N1CCC[C@H]1c1nc2cc(-c3ccc4ccc(-c5ccc6nc([C@@H]7CCCN7C(=O)[C@@H](NC(=O)OC)C(C)C)[nH]c6c5)cc4c3)ccc2[nH]1)C(C)C` [Example 1, Methyl((1S)-1-(((2S)-2-(5-(7-(2-((2S)-1-((2S)-2-((methoxycarbonyl)amino)-3-methylbutanoyl)-2-pyrrolidinyl)-1H-benzimidazol-5-yl)-2-naphthyl)-1H-benzimidazol-2-yl)-1-pyrrolidinyl)carbonyl)-2-methylpropyl)carbamate], the EC50 lay in the range of 1.01 to 1000 nM.

Take `COC(=O)N[C@H](C(=O)N1CCC[C@H]1c1ncc(-c2ccc(-c3ccc4cc(-c5ccc6nc([C@@H]7CCCN7C(=O)[C@@H](NC(=O)OC)C(C)C)[nH]c6c5)ccc4c3)cc2)[nH]1)C(C)C` [Example 3, Methyl((1S)-1-(((2S)-2-(4-(4-(6-(2-(1-((2S)-2-((methoxycarbonyl)amino)-3-methylbutanoyl)-2-pyrrolidinyl)-1H-benzimidazol-5-yl)-2-naphthyl)phenyl)-1H-imidazol-2-yl)-1-pyrrolidinyl)carbonyl)-2-methylpropyl)carbamate]: the 50% effective concentration (EC50) was in the range of 0.0101 to 1 nM.

Regarding `COC(=O)N[C@H](C(=O)N1CCC[C@H]1c1ncc(-c2ccc(-c3ccc4ccc(-c5ccc6nc([C@@H]7CCCN7C(=O)[C@@H](NC(=O)OC)C(C)C)[nH]c6c5)cc4c3)cc2)[nH]1)C(C)C` [Example 4, Methyl((1S)-1-(((2S)-2-(4-(4-(7-(2-((2S)-1-((2S)-2-((methoxycarbonyl)amino)-3-methylbutanoyl)-2-pyrrolidinyl)-1H-benzimidazol-5-yl)-2-naphthyl)phenyl)-1H-imidazol-2-yl)-1-pyrrolidinyl)carbonyl)-2-methylpropyl)carbamate], the EC50 lay within 1.01 to 1000 nM.

As for `COC(=O)N[C@@H](C)C(=O)N1CCC[C@H]1c1nc2ccc(-c3ccc4cc(-c5ccc6nc([C@@H]7CCCN7C(=O)[C@H](C)NC(=O)OC)[nH]c6c5)ccc4c3)cc2[nH]1` [Example 5, Methyl((1S)-2-((2S)-2-(5-(6-(2-((2S)-1-(N-(methoxycarbonyl)-L-alanyl)-2-pyrrolidinyl)-1H-benzimidazol-5-yl)-2-naphthyl)-1H-benzimidazol-2-yl)-1-pyrrolidinyl)-1-methyl-2-oxoethyl)carbamate], the concentration for a half-maximal effect (EC50) fell in the range of 0.0101 to 1 nM.

With `O=C([C@@H](c1ccccc1)N1CCCCC1)N1CCC[C@H]1c1nc2ccc(-c3ccc4cc(-c5ccc6nc([C@@H]7CCCN7C(=O)[C@@H](c7ccccc7)N7CCCCC7)[nH]c6c5)ccc4c3)cc2[nH]1` [Example 7, 5,5′-(2,6-Naphthalenediyl)bis(2-((2S)-1-((2R)-2-phenyl-2-(1-piperidinyl)acetyl)-2-pyrrolidinyl)-1H-benzimidazole)], the concentration for a half-maximal effect (EC50) was 0.0101 to 1 nM.

Consider `CN(C)[C@@H](C(=O)N1CCC[C@H]1c1nc2ccc(-c3ccc4cc(-c5ccc6nc([C@@H]7CCCN7C(=O)[C@@H](c7ccccc7)N(C)C)[nH]c6c5)ccc4c3)cc2[nH]1)c1ccccc1` [Example 8, (1R)-2-((2S)-2-(5-(6-(2-((2S)-1-((2R)-2-(Dimethylamino)-2-phenylacetyl)-2-pyrrolidinyl)-1H-benzimidazol-6-yl)-2-naphthyl)-1H-benzimidazol-2-yl)-1-pyrrolidinyl)-N,N-dimethyl-2-oxo-1-phenylethanamine], for which the EC50 was in the range of 0.0101 to 1 nM.

As for `COC(=O)N[C@H](C(=O)N1CCC[C@H]1c1nc2ccc(-c3ccc4cc(-c5ccc6nc([C@@H]7CCCN7C(=O)[C@@H](NC(=O)OC)C7CC7)[nH]c6c5)ccc4c3)cc2[nH]1)C1CC1` [Example 11, Dimethyl(2,6-naphthalenediylbis(1H-benzimidazole-5,2-diyl(2S)-2,1-pyrrolidinediyl((1S)-1-cyclopropyl-2-oxo-2,1-ethanediyl)))biscarbamate], the 50% effective concentration (EC50) was 0.0101 to 1 nM.

In the case of `COC(=O)N[C@@H](C(=O)N1CCC[C@H]1c1nc2cc(-c3ccc4ccc(-c5ccc6nc([C@@H]7CCCN7C(=O)[C@H](NC(=O)OC)c7ccccc7)[nH]c6c5)cc4c3)ccc2[nH]1)c1ccccc1` [Example 12, Dimethyl(2,7-naphthalenediylbis(1H-benzimidazole-5,2-diyl(2S)-2,1-pyrrolidinediyl((1R)-2-oxo-1-phenyl-2,1-ethanediyl)))biscarbamate], the EC50 was 1.01 to 1000 nM.

Turning to `COC(=O)N[C@@H](C)C(=O)N1CCC[C@H]1c1nc2cc(-c3ccc4ccc(-c5ccc6nc([C@@H]7CCCN7C(=O)[C@H](C)NC(=O)OC)[nH]c6c5)cc4c3)ccc2[nH]1` [Example 13, Methyl((1S)-2-((2S)-2-(5-(7-(2-((2S)-1-(N-(methoxycarbonyl)-L-alanyl)-2-pyrrolidinyl)-1H-benzimidazol-5-yl)-2-naphthyl)-1H-benzimidazol-2-yl)-1-pyrrolidinyl)-1-methyl-2-oxoethyl)carbamate], the EC50 fell in the range of 1.01 to 1000 nM.

Turning to `COC(=O)N[C@@H](C(=O)N1CCC[C@H]1c1nc2cc(-c3ccc4ccc(-c5ccc6nc([C@@H]7CCCN7C(=O)[C@H](NC(=O)OC)C(C)C)[nH]c6c5)cc4c3)ccc2[nH]1)C(C)C` [Example 14, Methyl((1R)-1-(((2S)-2-(5-(7-(2-((2S)-1-((2R)-2-((methoxycarbonyl)amino)-3-methylbutanoyl)-2-pyrrolidinyl)-1H-benzimidazol-5-yl)-2-naphthyl)-1H-benzimidazol-2-yl)-1-pyrrolidinyl)carbonyl)-2-methylpropyl)carbamate], the EC50 lay in the range of 1.01 to 1000 nM.

As for `O=C([C@@H](c1ccccc1)N1CCCCC1)N1CCC[C@H]1c1nc2cc(-c3ccc4ccc(-c5ccc6nc([C@@H]7CCCN7C(=O)[C@@H](c7ccccc7)N7CCCCC7)[nH]c6c5)cc4c3)ccc2[nH]1` [Example 15, 5,5′-(2,7-Naphthalenediyl)bis(2-((2S)-1-((2R)-2-phenyl-2-(1-piperidinyl)acetyl)-2-pyrrolidinyl)-1H-benzimidazole)], the EC50 fell in the range of 0.0101 to 1 nM.

Turning to `COC(=O)N[C@H](C(=O)N1CCC[C@H]1c1ncc(-c2ccc3ccc(-c4ccc5nc([C@@H]6CCCN6C(=O)[C@@H](NC(=O)OC)C(C)C)[nH]c5c4)cc3c2)[nH]1)C(C)C` [Example 17, Methyl((1S)-1-(((2S)-2-(4-(7-(2-((2S)-1-((2S)-2-((methoxycarbonyl)amino)-3-methylbutanoyl)-2-pyrrolidinyl)-1H-benzimidazol-5-yl)-2-naphthyl)-1H-imidazol-2-yl)-1-pyrrolidinyl)carbonyl)-2-methylpropyl)carbamate], the EC50 lay within 1.01 to 1000 nM.

For `CCN(CC)[C@@H](C(=O)N1[C@@H]2C[C@@H]2C[C@H]1c1nc2ccc(-c3ccc4cc(-c5ccc6nc([C@@H]7C[C@H]8C[C@H]8N7C(=O)[C@@H](c7ccccc7)N(CC)CC)[nH]c6c5)ccc4c3)cc2[nH]1)c1ccccc1` [Example 19, (1R)-2-((1R,3S,5R)-3-(5-(6-(2-((1R,3S,5R)-2-((2R)-2-(Diethylamino)-2-phenylacetyl)-2-azabicyclo[3.1.0]hex-3-yl)-1H-benzimidazol-6-yl)-2-naphthyl)-1H-benzimidazol-2-yl)-2-azabicyclo[3.1.0]hex-2-yl)-N,N-diethyl-2-oxo-1-phenylethanamine], the half-maximal effective concentration (EC50) fell in the range of 0.0101 to 1 nM.

As to `COC(=O)N[C@H](C(=O)N1CCC[C@H]1c1nc2ncc(-c3ccc4cc(-c5cnc6nc([C@@H]7CCCN7C(=O)[C@@H](NC(=O)OC)C(C)C)[nH]c6c5)ccc4c3)cc2[nH]1)C(C)C` [Example 22, Methyl((1S)-1-(((2S)-2-(6-(6-(2-((2S)-1-((2S)-2-((methoxycarbonyl)amino)-3-methylbutanoyl)-2-pyrrolidinyl)-1H-imidazo[4,5-b]pyridin-6-yl)-2-naphthyl)-1H-imidazo[4,5-b]pyridin-2-yl)-1-pyrrolidinyl)carbonyl)-2-methylpropyl)carbamate], the EC50 lay within 0.0101 to 1 nM.

Turning to `COC(=O)N[C@H](C(=O)N1CCC[C@@H]1c1nc2ncc(-c3ccc4cc(-c5cnc6nc([C@@H]7CCCN7C(=O)[C@@H](NC(=O)OC)C(C)C)[nH]c6c5)ccc4c3)cc2[nH]1)C(C)C` [Example 23, Methyl((1S)-1-(((2R)-2-(6-(6-(2-((2S)-1-((2S)-2-((methoxycarbonyl)amino)-3-methylbutanoyl)-2-pyrrolidinyl)-1H-imidazo[4,5-b]pyridin-6-yl)-2-naphthyl)-1H-imidazo[4,5-b]pyridin-2-yl)-1-pyrrolidinyl)carbonyl)-2-methylpropyl)carbamate], the EC50 was in the range of 0.0101 to 1 nM.
